One molecule from paper PMC5663395, “Chemical Validation of Methionyl-tRNA Synthetase as a Druggable Target in Leishmania donovani” (ACS Infectious Diseases, 2017) can be followed below.

Data set [1] deals with protein synthesis in human HeLa cell extract. Description: HeLa in vitro translation (GFP expression in cell extract). The class given is biochemical. The conditions noted are these: 100 μM. The method, then: page 27: When test compounds were to be screened, the compound of interest (solubilised in 100% DMSO) was dispensed into assay plates using an Echo® 550 (Labcyte) before L. tarentolae extract and eGFP template DNA were added to assay wells as described above. The reaction was run at room temperature for 120 min before eGFP fluorescence intensity was measured. IC50 curve fitting was undertaken in GraFit version 6.0 (Erithacus Software) using a four-parameter logistic dose-response curve (equation 6), with s the slope. […] GFP expression was monitored over time using a BMG PheraStar plate reader (Excitation 485 nm; Emission 520 nm). When testing DDD806905 and the positive control compound cycloheximide, compounds (solubilised in 100% DMSO) were dispensed into assay plates using an Echo® 550 (Labcyte) before HeLa extract, accessory proteins, reaction mix and GFP template DNA were added to assay wells and GFP expression monitored as described above. Mitochondrial protein synthesis assay The effect of DDD806905 on mitochondrial protein synthesis was determined by BioDuro using the MitoBiogenesisTM In-Cell ELISA Kit (Abcam). […] In the assay the levels of SDH-A and COX-1 are measured in H9C2 cells. These are normalised to DMSO treated cells (vehicle) and then the ratio of normalised SDH-A over COX-1 is calculated. […]

The test system of data set [2] is L. donovani axenic amastigotes. The data set can be described thus: Leishmania axenic amastigote viability assay. In kind it is cell-based, Leishmania donovani. The conditions noted are these: Leishmania donovani. The method, then: carried out as described above using 5%, 10% and 20% FBS in the media. To examine the effect of the methionine concentration on the potency of DDD806905 parasites were grown in the presence of drug and in the presence (or absence) of 20-fold excess methionine (0.3 g/l). IC50 curve fitting was undertaken in GraFit version 6.0 (Erithacus Software) using a four-parameter logistic dose-response curve (equation 6), with s the slope.
Leishmania Axenic Amastigote Assay
The Leishmania axenic amastigote assay was performed using the method published in Nühs et al 15.
Leishmania Intracellular Amastigote Assay
The intramacrophage Leishmania assay was performed using a modified version of the method described in De Rycker et al 16. […]
amphotericin B was included. Controls were as follows: columns 11 and 12: DMSO, columns 23 and 24: amphotericin B (final concentration 2 µM). 350 nl of compound was pre-dispensed into 384-well sterile intermediary plates. To the intermediary plates, 35 µl of THP-1 media was added and plates were shaken for >5 min to ensure complete mixing. THP-1 cells (8,000 per well, 50 µl) were plated into black clear-bottom 384-well plates (Corning) in presence of 20 nM phorbol 12-myristate 13- […]
in a humidified incubator for 75 h. The cells were then washed with 450 µl sterile phosphate buffered saline (PBS) supplemented with 1 mM CaCl2, 0.5 mM MgCl2, 0.1% (w/v) bovine serum albumin (PBS-A) and amastigotes were added to all wells at a multiplicity of infection of 5 (40,000 amastigotes per well). After 40 min at room temperature, plates were returned to the incubator.
Amastigotes were incubated in the presence of THP-1 macrophages for 16 h. Any remaining extracellular amastigotes were subsequently removed by washing with PBS-A followed by addition of 25 µl of the compound pre-dilutions using an Ipette-pro pipetting station (FluidX). The final dilution of each compound was 200-fold. Plates were incubated for 96 h and then washed (250 µl PBS-A) and fixed (4 % (v/v) formaldehyde-PBS, 30 min, room temperature). After fixation, the wells were washed with 250 µl PBS, stained (10 µg/ml DAPI, 0.4 µg/mL HCS Cellmask Deep Red in PBS + 0.1% (v/v) Triton X-100, 30 min, room temperature) and washed with 250 µl PBS. Finally, PBS + 0.05% (v/v) thimerosal was added to the wells, the plates were sealed and imaged on a high-content microscope (GE IN Cell 2000) using a 10x objective. Image analysis was carried out with GE IN Cell Analyzer 1000 Workstation using the “Multi Target Analysis” module. For each well, i) THP-1 cell count (cytotoxicity readout) and ii) average number of amastigotes per cell (potency readout) were […]

A short description of the next data set: in vivo. The conditions noted are these: female, Balb/c, mouse, iv.
Data set [3] deals with Leishmania donovani liver parasite burden. Description: Mouse visceral leishmaniasis efficacy model. The conditions noted are these: 50 mg/kg oral twice daily for 10 days, 50 mg/kg.
Data set [4] can be described thus: Mouse pharmacokinetics integrated in efficacy study (blood levels). The conditions noted are these: female, BALB/c, whole blood, po, 50 mg/kg; for AUC(0-t): AUC(0-8h); for AUC(0-t) / Cmax: infected mice, 50 mg/kg oral; for Cmax: Cmax in blood.

Where “and” joins values, the source holds several entries; their conditions need not be identical. Equal values may be shown once. Read-outs that look alike come from different tables or passages of the source.

For orientation: EC50 means the concentration giving half of the maximal effect. By Vd is commonly meant a proportionality between amount in the body and measured concentration, not a real space. A high value points to wide distribution into tissue. As a reminder, the Tmax is the time at which the peak concentration occurs. The term AUC(0-t) denotes exposure summed from dosing to a finite time, without extrapolation to infinity. For orientation: Cmax means the peak of the concentration-time curve. In the case of `Cl.Cl.O=c1nc(NCCCNCc2cc3c(Cl)cc(Cl)cc3[nH]2)[nH]c2ccccc12` [DDD806905, 2-((3-(((4,6-dichloro-1H-indol-2-yl)methyl)amino)propyl)amino)quinazolin-4(1H)-one dihydrochloride], in data set [1], the “inhibition of in vitro translation in HeLa cell extract” value is reported as “no inhibition”. The concentration giving a half-maximal response (EC50) in data set [2] (Table 1, read-out: Leishmania Axenic Amastigote EC50) turned out to be 14 µM; in data set [2] (media pH 5.6, read-out: axenic amastigote EC50), 13.7 µM. The molecule further had a Vd in “in vivo” of 6 L/kg. Moreover, the “reduction (knock-down) of liver parasite burden (LDU) vs vehicle” value in data set [3] is 19% and 19.4%. The time to peak (Tmax) in data set [4] turned out to be 2 h. The AUC(0-t) in data set [4] (day 1) is 15800 ng·h/mL; in data set [4] (day 10), 23300 ng·h/mL. Moreover, the values for the Cmax in data set [4] (first dose day 1) and in data set [4] (first dose day 10) were 2600 ng/mL and 3200 ng/mL, respectively.
